From patent US20060241097A1, “Pesticidal substituted 1,2,5-thiadiazole derivatives” (FMC CORPORATION, priority 2003, published 2006) come the findings set out here.

The melting point is the temperature, or range, at which the solid turns liquid. The term mortality denotes the share of the test organisms that died.

The subject of data set [1] is two-spotted spider mite (Tetranychus urticae). The data set can be described thus: Foliar test against two-spotted spider mite on pinto bean seedlings. The format is in vivo. Conditions: foliar spray, 72 hours. As for the experimental part: Candidate pesticides, i.e., acaricides of the present invention were evaluated on 7-8 day old pinto bean seedlings infested with two-spotted spider mite (Tetranychus urticae) in comparison with the corresponding 1,2,4-thiadiazole derivatives. The test was conducted using the test method set forth below:
One to two hours prior to the test, leaf cuttings containing about 50-75 adult mites were placed on leaves of each of duplicate pinto bean seedlings for each rate of application of candidate acaricide. Solutions of the candidate acaricide were prepared for testing by serial dilution of a standard solution comprised of an appropriate amount of acaricide in a water/acetone solvent, which contained a small amount of a surfactant. Rates of application of candidate acaricide may range from about 1000 ppm, or more, to about 1 ppm, or less, in a rate series of, for example, 1000 ppm, 300 ppm, 100 ppm, 30 ppm, 10 ppm, 3 ppm, and 1 ppm. The solutions containing each rate of application of candidate acaricide were then sprayed to run-off to both the upper and lower portions of the leaves of the mite-infested pinto bean seedlings. Each test of foliar-applied candidate acaricide included appropriate standard acaricide of known acaricidal activity and blank treatments to aid in assessing the acaricidal activity of the candidate acaricide. Upon completion of the spraying with candidate acaricide, the pinto bean seedlings were maintained in a growth chamber for a period of 72 hours. After this time, the seedlings were examined for dead acarids. […] Upon completion of the evaluation of the test, the percent control of the two-spotted spider mite for each rate of application of the candidate acaricide was determined by comparison of the total number of dead and motibund acarids to the total number of acarids in the test.

Data set [2] concerns cotton aphid (Aphis gossypii). Put plainly: Foliar test against cotton aphid on cotton seedlings. The format is in vivo. The method, then:
Candidate pesticides, i.e., insecticides of the present invention were evaluated on 7-10 day old cotton seedlings infested with cotton aphid (Aphis gossypii). At least 12 hours prior to the test, leaf cuttings containing about 50 adult aphids were placed on leaves of each of duplicate cotton seedlings for each rate of application of candidate insecticide. Solutions of the candidate insecticide were prepared for testing by serial dilution of a standard solution comprised of an appropriate amount of insecticide in a water/acetone solvent, which contained a small amount of a surfactant. Rates of application of candidate insecticide may range from about 1000 ppm, or more, to about 3 ppm, or less, in a rate series of, for example, 1000 ppm, 100 ppm, 30 ppm, 10 ppm, and 3 ppm. The solutions containing each rate of application of candidate insecticide were then sprayed to run-off to both the upper and lower portions of the leaves of the aphid-infested cotton seedlings. Each test of foliar-applied candidate insecticide included appropriate standard insecticide of known insecticidal activity and blank treatments to aid in assessing the insecticidal activity of the candidate insecticide. Upon completion of the spraying with candidate insecticide, the cotton seedlings were maintained in a growth chamber for a period of 72 hours. After this time, the seedlings were examined for dead insects. Insects were classified as dead if they were off-color or brown and desiccated. Upon completion of the evaluation of the test, the percent mortality of the cotton aphid for each rate of application of the candidate insecticide was determined by comparison of the total number of dead insects to the total number of insects in the test.

Where [3] appears, read: cotton aphid, foliar spray, 300 ppm, 72 hours.
Setting [4] is: cotton aphid, foliar spray, 1000 ppm, 72 hours.
Where [5] appears, read: Aphis gossypii, foliar, 72 h, read-out: Percent Mortality.
Where [6] appears, read: Aphis gossypii, cotton aphid, foliar spray, 300 ppm, 72 hours, read-out: Percent Mortality.
The mark [7] stands for this setting: Aphis gossypii, cotton aphid, foliar spray, 1000 ppm, 72 hours, read-out: Percent Mortality.

Structures are written as SMILES. Where a name gives a salt, the structure may show the parent alone. Read-outs that look alike come from different tables or passages of the source. Bounds are passed on as bounds.

With `CCCOc1nsnc1C1CN2CCC1CC2` (centres unmarked) [Compound 109], the “Percent Control” value in data set [1] (300 ppm) was 15%; in data set [1] (1000 ppm), 65%.

Take `Clc1nsnc1C1=CC=CN(Cc2ccccc2)C1` (as salt: salt) [Compound 162, 3-chloro-4-(1-benzylpyrid-3-yl)-1,2,5-thiadiazole]: the melting point lay in the range of 47 to 49 °C.

As for `CCOc1nsnc1C1CN2CCC1CC2` (centres unmarked) [Compound 108], the “Percent Mortality” value was 3% in data set [2] (setting [3]) and 17% in data set [2] (setting [4]).

Take `CN1CCC=C(c2nsnc2Oc2ccc(F)cc2)C1` [Compound 63]: the “Percent Mortality” value in data set [2] (cotton aphid, foliar spray, 1000 ppm, 72 hours, average of two tests) is reported as 48%.

For `CCCOc1nsnc1C1=CC=CNC1` [Compound 140], in data set [2] (setting [4]), the “Percent Mortality (LP class)” value is “LP (LP means that some activity was observed because the population of the cotton aphids was lowered but a value was not calculated.)”.

`CCCSc1nsnc1C1=CCCN(C)C1` [Compound 71]: the “Percent Control” value in data set [1] (300 ppm) amounted to 20%.

Turning to `Clc1nsnc1C1=CCCN(Cc2ccccc2)C1` [Compound 2, 3-chloro-4-[1-benzyl(1,2,5,6-tetrahydropyrid-3-yl)]-1,2,5-thiadiazole], the mortality at 1000 ppm in data set [2] (Aphis gossypii, cotton aphid, foliar spray, 1000 ppm, 72 hours, read-out: Percent Mortality (LP class)) was more than 0%.

As for `CN1CCC=C(c2nsnc2F)C1` [Compound 23, 3-fluoro-4-(1-methyl-1,2,5,6-tetrahydropyrid-3-yl)-1,2,5-thiadiazole], the “Percent Control” value in data set [1] (10 ppm) was determined as 35%; in data set [1] (30 ppm) it was 95%; in data set [1] (100 ppm) it was 98%; in data set [1] (300 ppm), 100%. Further, the mortality at 1000 ppm in data set [2] (Aphis gossypii, cotton aphid, foliar spray, 1000 ppm, 72 hours, average of two tests, read-out: Percent Mortality) stood at 11%.

For `CCCCSc1nsnc1C1=CCCN(C)C1` [Compound 72], the “Percent Control” value in data set [1] (300 ppm) worked out at 4%; in data set [1] (1000 ppm), 34%.

Turning to `Clc1nsnc1C1(Cl)CN2CCC1CC2` (centres unmarked), the melting point was in the range of 93 to 95 °C.

Turning to `Clc1nsnc1C1CN2CCC1CC2` (centres unmarked) [Compound 102, 3-chloro-4-quinuclidin-3-yl-1,2,5-thiadiazole], in data set [1] (100 ppm), the “Percent Control” value was determined as 13%. Further, the “Percent Control” value in data set [1] (300 ppm) was found to be 27%. Moreover, in data set [2] (setting [5]), the mortality at 300 ppm is 8% and the mortality at 1000 ppm was found to be 33%.

Consider `CCCCOc1nsnc1C1=CCCN(C)C1` [Compound 60], for which the “Percent Control” value is 10% in data set [1] (300 ppm) and 41% in data set [1] (1000 ppm). Further, the “Percent Mortality (LP class)” value in data set [2] (setting [4]) is given as “LP (LP means that some activity was observed because the population of the cotton aphids was lowered but a value was not calculated.)”.

For the compound `CCCCOc1nsnc1C1CN2CCC1CC2` (centres unmarked) [Compound 110, 3-butoxy-4-quinuclidin-3-yl-1,2,5-thiadiazole], the “Percent Control” value in data set [1] (300 ppm) was 34%. In addition, in data set [2] (Aphis gossypii, foliar, 72 h, read-out: Percent Mortality (LP class)), the mortality at 1000 ppm was more than 0%.

Regarding `C#CCOc1nsnc1C1=CCCN(C)C1` [Compound 66], the “Percent Control” value in data set [1] (100 ppm) was determined as 52%; in data set [1] (300 ppm), 83%; in data set [1] (1000 ppm) it was 98%.

On to `CCOC(=O)N1CCC=C(c2nsnc2Cl)C1` [Compound 3], for which, in data set [2] (setting [4]), the “Percent Mortality (LP class)” value is “LP (LP means that some activity was observed because the population of the cotton aphids was lowered but a value was not calculated.)”.

`CN1CCC=C(c2ncns2)C1` [A, reference compound]: the “Percent Control” value in data set [1] (300 ppm) was “completely inactive”.

Consider `Cc1nsc(C2=CCCN(C)C2)n1` [B, reference compound], for which the “Percent Control” value in data set [1] (300 ppm) is “completely inactive”.

Take `CCCCCSc1nsnc1C1=CCCN(C)C1` [Compound 73]: the “Percent Mortality (LP class)” value in data set [2] (setting [4]) is reported as “LP (LP means that some activity was observed because the population of the cotton aphids was lowered but a value was not calculated.)”.

As for `Cc1nsnc1-c1cccnc1` [Compound 132, 3-methyl-4-pyrid-3-yl-1,2,5-thiadiazole], the mortality at 300 ppm in data set [2] (setting [6]) was 35%. In addition, the mortality at 1000 ppm in data set [2] (setting [7]) was determined as 82%.

`CC#CCOc1nsnc1C1=CCCN(C)C1` [Compound 67]: the “Percent Control” value in data set [1] (300 ppm) and in data set [1] (1000 ppm) was 100% each time.

In the case of `C#CCCOc1nsnc1C1=CCCN(C)C1` [Compound 68], the “Percent Mortality (LP class)” value in data set [2] (setting [4]) is recorded as “LP (LP means that some activity was observed because the population of the cotton aphids was lowered but a value was not calculated.)”.

`CN1CCC=C(c2cnsn2)C1` [Compound 4, 3-[1-methyl(1,2,5,6-tetrahydropyrid-3-yl)]-1,2,5-thiadiazole]: the “Percent Control” value in data set [1] (10 ppm) was determined as 49%; in data set [1] (30 ppm), 96%; in data set [1] (100 ppm), 100%; in data set [1] (300 ppm), 100%; in data set [1] (1000 ppm), 100%. Besides, in data set [2] (Aphis gossypii, cotton aphid, foliar spray, 100 ppm, 72 hours, read-out: Percent Mortality), the mortality at 100 ppm came out at 24%. Besides, the mortality at 300 ppm in data set [2] (setting [6]) came to 73%. The mortality at 1000 ppm in data set [2] (setting [7]) stood at 86%.

With `CCCCCCSc1nsnc1C1=CCCN(C)C1` [Compound 75], the “Percent Mortality” value in data set [2] (setting [4]) stood at 25%.

For `COc1nsnc1C1CN2CCC1CC2` (centres unmarked) [Compound 107], the “Percent Mortality” value came to 12% in data set [2] (setting [3]) and 24% in data set [2] (setting [4]).

For `C=CCSc1nsnc1C1=CCCN(C)C1` [Compound 77], in data set [1] (300 ppm), the “Percent Control” value is reported as 13%.
